Reference: patent publication US20260241012A1, “1,8-NAPHTHYRIDIN-2-ONE HETEROBIFUNCTIONAL BCL6 DEGRADERS” (Treeline Biosciences, Inc., priority 2022, published 2026)

Target: T1, N-terminal HiBiT tagged BCL6 (Homo sapiens, UniProt P41182)
T1 construct: expressed in transfected cells; host or cells: HT1080 (ATCC CCL-121), stably transduced with lentivirus pLV-UBC-N-HiBiT-BCL6-PGK-puro
Experiment: HiBiT based degradation assay
Assay type: cell-based
Conditions: HT1080 cells expressing N-terminal HiBiT tagged BCL6, 5 hours of incubation; for Ymin (5 hr): BCL6 degradation normalized with DMSO control; for DC50: four-parameter logistic model, read-out: EC50 (5 hr)
Procedure, shortened: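 Degradation measured by luminescence from the Nano-Glo HiBiT lytic reagent (15 min, room temperature), normalized to DMSO controls and fitted to a four-parameter curve.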

| Structure (SMILES) | Ymin (5 hr) | DC50 [µM] |
| --- | --- | --- |
| CNC(=O)COc1cc2cc(Nc3nc(N4CCC5(CCC(CN6CCN(c7ccc8c(C9CCC(=O)NC9=O)nn(C)c8c7)CC6)CC5)CC4)ncc3Cl)cnc2n(C(C)C)c1=O (stereo not shown) [Compound 204, 2-((6-((5-chloro-2-(9-((4-(3-(2,6-dioxopiperidin-3-yl)-1-methyl-1H-indazol-6-yl)piperazin-1-yl)methyl)-3-azaspiro[5.5]undecan-3-yl)pyrimidin-4-yl)amino)-1-isopropyl-2-oxo-1,2-dihydro-1,8-naphthyridin-3-yl)oxy)-N-methylacetamide] | ++++ (Ymin < 30%) | 0.01 to 0.1 |
| CNC(=O)COc1cc2cc(Nc3nc(N4CC5(CCC(CN6CCN(c7ccc8c(C9CCC(=O)NC9=O)nn(C)c8c7)CC6)CC5)C4)ncc3Cl)cnc2n(C(C)C)c1=O (stereo not shown) [Compound 205, 2-((6-((5-chloro-2-(7-((4-(3-(2,6-dioxopiperidin-3-yl)-1-methyl-1H-indazol-6-yl)piperazin-1-yl)methyl)-2-azaspiro[3.5]nonan-2-yl)pyrimidin-4-yl)amino)-1-isopropyl-2-oxo-1,2-dihydro-1,8-naphthyridin-3-yl)oxy)-N-methylacetamide] | ++++ (Ymin < 30%) | < 0.01 |
| CNC(=O)COc1cc2cc(Nc3nc(NC4CCC5(CC4)CN(c4ccc6c(C7CCC(=O)NC7=O)nn(C)c6c4)C5)ncc3Cl)cnc2n(C(C)C)c1=O (stereo not shown) [Compound 206, 2-[[6-[[5-chloro-2-[[2-[3-(2,6-dioxo-3-piperidyl)-1-methyl-indazol-6-yl]-2-azaspiro[3.5]nonan-7-yl]amino]pyrimidin-4-yl]amino]-1-isopropyl-2-oxo-1,8-naphthyridin-3-yl]oxy]-N-methyl-acetamide] | ++++ (Ymin < 30%) | < 0.01 |
| CNC(=O)COc1cc2cc(Nc3nc(N4CC5(CC(N(C)c6ccc7c(C8CCC(=O)NC8=O)nn(C)c7c6)C5)C4)ncc3Cl)cnc2n(C(C)C)c1=O (stereo not shown) [Compound 207, 2-[[6-[[5-chloro-2-[6-[[3-(2,6-dioxo-3-piperidyl)-1-methyl-indazol-6-yl]-methyl-amino]-2-azaspiro[3.3]heptan-2-yl]pyrimidin-4-yl]amino]-1-isopropyl-2-oxo-1,8-naphthyridin-3-yl]oxy]-N-methyl-acetamide] | +++ (30% ≤ Ymin < 50%) | < 0.01 |
| CNC(=O)COc1cc2cc(Nc3nc(N4CCC(CN5C6CC5CN(c5cccc7c(C8CCC(=O)NC8=O)nn(C)c57)C6)CC4)ncc3Cl)cnc2n(C(C)C)c1=O (stereo not shown) [Compound 209, 2-[[6-[[5-chloro-2-[4-[[3-[3-(2,6-dioxo-3-piperidyl)-1-methyl-indazol-7-yl]-3,6-diazabicyclo[3.1.1]heptan-6-yl]methyl]-1-piperidyl]pyrimidin-4-yl]amino]-1-isopropyl-2-oxo-1,8-naphthyridin-3-yl]oxy]-N-methyl-acetamide] | +++ (30% ≤ Ymin < 50%) | < 0.01 |
| CNC(=O)COc1cc2cc(Nc3nc(N4CCC(C(=O)N5CCN(c6ccc7c(C8CCC(=O)NC8=O)nn(C)c7c6)CC5)CC4)ncc3Cl)cnc2n(C(C)C)c1=O (stereo not shown) [Compound 211, 2-[[6-[[5-chloro-2-[4-[4-[3-(2,6-dioxo-3-piperidyl)-1-methyl-indazol-6-yl]piperazine-1-carbonyl]-1-piperidyl]pyrimidin-4-yl]amino]-1-isopropyl-2-oxo-1,8-naphthyridin-3-yl]oxy]-N-methyl-acetamide] | +++ (30% ≤ Ymin < 50%) | < 0.01 |
| CNC(=O)COc1cc2cc(Nc3nc(N4CC5(CC(Oc6ccc7c(C8CCC(=O)NC8=O)nn(C)c7c6)C5)C4)ncc3Cl)cnc2n(C(C)C)c1=O (stereo not shown) [Compound 213, 2-[[6-[[5-chloro-2-[6-[3-(2,6-dioxo-3-piperidyl)-1-methyl-indazol-6-yl]oxy-2-azaspiro[3.3]heptan-2-yl]pyrimidin-4-yl]amino]-1-isopropyl-2-oxo-1,8-naphthyridin-3-yl]oxy]-N-methyl-acetamide] | ++++ (Ymin < 30%) | < 0.01 |
| CNC(=O)COc1cc2cc(Nc3nc(N4CCN(C[C@H]5CCN(c6ccc7c(C8CCC(=O)NC8=O)nn(C)c7c6)C5)[C@@H](C)C4)ncc3Cl)cnc2n(C(C)C)c1=O (stereo partly drawn) [Compound 216a, 2-[[6-[[5-chloro-2-[(3S)-4-[[(3R)-1-[3-(2,6-dioxo-3-piperidyl)-1-methyl-indazol-6-yl]pyrrolidin-3-yl]methyl]-3-methyl-piperazin-1-yl]pyrimidin-4-yl]amino]-1-isopropyl-2-oxo-1,8-naphthyridin-3-yl]oxy]-N-methyl-acetamide] | ++ (50% ≤ Ymin < 70%) | 0.01 to 0.1 |
| CNC(=O)COc1cc2cc(Nc3nc(N4CCN(C[C@@H]5CCN(c6ccc7c(C8CCC(=O)NC8=O)nn(C)c7c6)C5)[C@@H](C)C4)ncc3Cl)cnc2n(C(C)C)c1=O (stereo partly drawn) [Compound 216b, 2-((6-((5-Chloro-2-((3S)-4-(((3S)-1-(3-(2,6-dioxopiperidin-3-yl)-1-methyl-1H-indazol-6-yl)pyrrolidin-3-yl)methyl)-3-methylpiperazin-1-yl)pyrimidin-4-yl)amino)-1-isopropyl-2-oxo-1,2-dihydro-1,8-naphthyridin-3-yl)oxy)-N-methylacetamide] | +++ (30% ≤ Ymin < 50%) | 0.01 to 0.1 |

Second part, the compound after the results:

| Ymin (5 hr) | DC50 [µM] | Structure (SMILES) |
| --- | --- | --- |
| +++ (30% ≤ Ymin < 50%) | 0.01 to 0.1 | CNC(=O)COc1cc2cc(Nc3nc(N4CCN(CC5CCN(c6cccc7c(C8CCC(=O)NC8=O)nn(C)c67)CC5)[C@H](C(C)(C)O)C4)ncc3Cl)cnc2n(C(C)C)c1=O (stereo partly drawn) [Compound 208a, 2-[[6-[[5-chloro-2-[(3S)-4-[[1-[3-(2,6-dioxo-3-piperidyl)-1-methyl-indazol-7-yl]-4-piperidyl]methyl]-3-(1-hydroxy-1-methyl-ethyl)piperazin-1-yl]pyrimidin-4-yl]amino]-1-isopropyl-2-oxo-1,8-naphthyridin-3-yl]oxy]-N-methyl-acetamide] |
| ++++ (Ymin < 30%) | 0.01 to 0.1 | CNC(=O)COc1cc2cc(Nc3nc(N4CCN(CC5CCN(c6cccc7c(C8CCC(=O)NC8=O)nn(C)c67)CC5)[C@@H](C(C)(C)O)C4)ncc3Cl)cnc2n(C(C)C)c1=O (stereo partly shown) [Compound 208b] |
| ++++ (Ymin < 30%) | 0.01 to 0.1 | CNC(=O)COc1cc2cc(Nc3nc(N4CCC(CN5CCN(c6cccc7c(C8CCC(=O)NC8=O)nn(C)c67)[C@@H](C)C5)CC4)ncc3F)cnc2n(C(C)C)c1=O (stereo partly drawn) [Compound 210a, 2-[[6-[[2-[4-[[(3S)-4-[3-(2,6-dioxo-3-piperidyl)-1-methyl-indazol-7-yl]-3-methyl-piperazin-1-yl]methyl]-1-piperidyl]-5-fluoro-pyrimidin-4-yl]amino]-1-isopropyl-2-oxo-1,8-naphthyridin-3-yl]oxy]-N-methyl-acetamide] |
| ++++ (Ymin < 30%) | 0.01 to 0.1 | CNC(=O)COc1cc2cc(Nc3nc(N4CCC(CN5CCN(c6cccc7c(C8CCC(=O)NC8=O)nn(C)c67)[C@H](C)C5)CC4)ncc3F)cnc2n(C(C)C)c1=O (stereo partly drawn) [Compound 210b, 2-[[6-[[2-[4-[[(3R)-4-[3-(2,6-dioxo-3-piperidyl)-1-methyl-indazol-7-yl]-3-methyl-piperazin-1-yl]methyl]-1-piperidyl]-5-fluoro-pyrimidin-4-yl]amino]-1-isopropyl-2-oxo-1,8-naphthyridin-3-yl]oxy]-N-methyl-acetamide] |
| ++++ (Ymin < 30%) | < 0.01 | CNC(=O)COc1cc2cc(Nc3nc(N4CCC(CN5CCC(c6ccc7c(C8CCC(=O)NC8=O)nn(C)c7c6)CC5)CC4)ncc3Cl)cnc2n(C(C)C)c1=O (stereo not shown) [Compound 212, 2-((6-((5-chloro-2-(4-((4-(3-(2,6-dioxopiperidin-3-yl)-1-methyl-1H-indazol-6-yl)piperidin-1-yl)methyl)piperidin-1-yl)pyrimidin-4-yl)amino)-1-isopropyl-2-oxo-1,2-dihydro-1,8-naphthyridin-3-yl)oxy)-N-methylacetamide] |
| +++ (30% ≤ Ymin < 50%) | < 0.01 | CNC(=O)COc1cc2cc(Nc3nc(N4CCC(CN5CCN(c6ccc7c(C8CCC(=O)NC8=O)nn(C)c7c6)CC5)CC4)ncc3Cl)cnc2n(C(C)C)c1=O (stereo not shown) [Compound 214, 2-((6-((5-chloro-2-(4-((4-(3-(2,6-dioxopiperidin-3-yl)-1-methyl-1H-indazol-6-yl)piperazin-1-yl)methyl)piperidin-1-yl)pyrimidin-4-yl)amino)-1-isopropyl-2-oxo-1,2-dihydro-1,8-naphthyridin-3-yl)oxy)-N-methylacetamide] |
| +++ (30% ≤ Ymin < 50%) | < 0.01 | CNC(=O)COc1cc2cc(Nc3nc(N4CCC(CN5CCN(c6ccc7c(C8CCC(=O)NC8=O)nn(C)c7c6)C[C@H]5C)CC4)ncc3Cl)cnc2n(C(C)C)c1=O (stereo partly drawn) [Compound 215a, 2-((6-((5-chloro-2-(4-(((2R)-4-(3-(2,6-dioxopiperidin-3-yl)-1-methyl-1H-indazol-6-yl)-2-methylpiperazin-1-yl)methyl)piperidin-1-yl)pyrimidin-4-yl)amino)-1-isopropyl-2-oxo-1,2-dihydro-1,8-naphthyridin-3-yl)oxy)-N-methylacetamide] |
| +++ (30% ≤ Ymin < 50%) | 0.01 to 0.1 | CNC(=O)COc1cc2cc(Nc3nc(N4CCC(CN5CCN(c6ccc7c(C8CCC(=O)NC8=O)nn(C)c7c6)C[C@@H]5C)CC4)ncc3Cl)cnc2n(C(C)C)c1=O (stereo partly drawn) [Compound 215b, 2-((6-((5-chloro-2-(4-(((2S)-4-(3-(2,6-dioxopiperidin-3-yl)-1-methyl-1H-indazol-6-yl)-2-methylpiperazin-1-yl)methyl)piperidin-1-yl)pyrimidin-4-yl)amino)-1-isopropyl-2-oxo-1,2-dihydro-1,8-naphthyridin-3-yl)oxy)-N-methylacetamide] |
